ChEMBL document CHEMBL4177539, “Discovery of N-((3R,4R)-4-Fluoro-1-(6-((3-methoxy-1-methyl-1H-pyrazol-4-yl)amino)-9-methyl-9H-purin-2-yl)pyrrolidine-3-yl)acrylamide (PF-06747775) through Structure-Based Drug Design: A High Affinity Irreversible Inhibitor Targeting Oncogenic EGFR Mutants with Selectivity over Wild-Type EGFR” (J Med Chem, 2017)
Active and inactive are the calls of the source. No cut-off for these calls is given here.

Columns and labels:
[1] = Clearance in Nu/Nu mouse plasma at 1 mg/kg, iv administered as single dose; type: ADME, organism-based
in vitro = settings: human, liver microsomes
[2] = Drug metabolism in human hepatocytes assessed as demethylation; type: ADME, cell-based, Hepatocyte
[3] = target: Tyrosine-protein kinase Tec (Homo sapiens) (UniProt P42680); assay: Inhibition of His-tagged full-length recombinant human TEC cytoplasmic domain expressed in Baculovirus expression system at 1 uM by FRET-based Z'-LYTE assay
Chain of Tyrosine-protein kinase Tec (Homo sapiens) (P42680 whole entry, the tested form may be a part): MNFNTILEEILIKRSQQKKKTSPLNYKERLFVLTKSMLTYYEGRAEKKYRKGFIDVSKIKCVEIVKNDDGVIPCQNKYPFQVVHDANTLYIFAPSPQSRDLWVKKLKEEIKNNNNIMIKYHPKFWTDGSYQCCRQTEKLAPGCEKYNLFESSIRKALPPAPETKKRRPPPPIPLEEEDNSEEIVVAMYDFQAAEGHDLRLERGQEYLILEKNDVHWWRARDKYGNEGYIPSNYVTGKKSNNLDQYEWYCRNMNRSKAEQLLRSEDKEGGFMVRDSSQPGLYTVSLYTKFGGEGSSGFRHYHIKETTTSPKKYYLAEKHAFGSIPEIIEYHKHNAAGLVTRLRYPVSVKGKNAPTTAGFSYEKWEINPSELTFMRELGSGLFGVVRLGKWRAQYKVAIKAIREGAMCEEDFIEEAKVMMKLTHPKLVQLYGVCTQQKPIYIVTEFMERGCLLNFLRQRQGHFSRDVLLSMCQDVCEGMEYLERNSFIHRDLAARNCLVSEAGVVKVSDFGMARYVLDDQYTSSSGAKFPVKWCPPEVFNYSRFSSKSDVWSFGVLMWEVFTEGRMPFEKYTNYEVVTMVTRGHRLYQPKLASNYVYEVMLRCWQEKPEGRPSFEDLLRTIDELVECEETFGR

Canis familiaris [4] = assay: Toxicity in dog assessed as effect on central nervous system functions administered as repeated dosing; type: organism-based, Canis lupus familiaris; settings: in vivo
Rattus norvegicus [5] = assay: Toxicity in rat assessed as effect on heart rate administered as repeated dosing; type: organism-based; settings: in vivo
[6] = Apparent intrinsic clearance in mouse microsomes; type: ADME, Microsome; settings: read-out: CL(app)
[7] = Apparent intrinsic clearance in human microsomes; type: ADME, Microsome; settings: read-out: CL(app)
Rattus norvegicus [8] = assay: Toxicity in rat assessed as electrocardiogram changes administered as repeated dosing; type: organism-based; settings: in vivo
[9] = Half life in human blood at 1 uM by LC-MS/MS analysis; type: ADME, tissue-based
Rattus norvegicus [10] = assay: Toxicity in rat assessed as effect on pulmonary system functions administered as repeated dosing; type: organism-based; settings: in vivo
[11] = target: Voltage-gated inwardly rectifying potassium channel KCNH2 (Homo sapiens, UniProt Q12809); assay: Inhibition of human ERG
Canis familiaris [12] = assay: Toxicity in dog assessed as effect on pulmonary system functions administered as repeated dosing; type: organism-based, Canis lupus familiaris; settings: in vivo
Rattus norvegicus [13] = assay: Toxicity in rat assessed as effect on central nervous system functions administered as single dose; type: organism-based; settings: in vivo
[14] = Apparent intrinsic clearance in human hepatocytes; type: ADME, cell-based, Hepatocyte; settings: read-out: CLH(app)
[15] = target: Activated CDC42 kinase 1 (Homo sapiens) (UniProt Q07912); assay: Inhibition of GST-tagged recombinant human ACK catalytic domain (110 to 476 residues) expressed in Baculovirus expression system at 1 uM by FRET-based Z'-LYTE assay
[16] = Volume of distribution at steady state in Beagle dog at 1 mg/kg, iv administered as single dose; type: ADME, organism-based, Canis lupus familiaris; settings: in vivo, read-out: Vdss
[17] = Half life in Sprague-Dawley rat blood at 1 uM by LC-MS/MS analysis; type: ADME, tissue-based
[18] = Apparent intrinsic hepatic clearance in mouse hepatocytes; type: ADME, cell-based, Hepatocyte; settings: read-out: CLH(app)
[19] = Oral bioavailability in Nu/Nu mouse at 1 mg/kg administered as single dose; type: ADME, organism-based; settings: in vivo
Canis familiaris [20] = assay: Toxicity in dog assessed as effect on central nervous system functions administered as single dose; type: organism-based, Canis lupus familiaris; settings: in vivo
Hepatocyte = settings: human, hepatocytes, 1 µM
[21] = target: Tyrosine-protein kinase BTK (Homo sapiens) (UniProt Q06187); assay: Inhibition of BTK (unknown origin) at 1 uM by cell based assay
Rattus norvegicus [22] = assay: Toxicity in rat assessed as effect on blood pressure administered as single dose; type: organism-based; settings: in vivo
CYP3A4 = CYP3A4 (Homo sapiens, UniProt P08684); assay: Inhibition of human CYP3A4 at 10 uM; type: ADME
Chain of CYP3A4 (P08684 whole entry): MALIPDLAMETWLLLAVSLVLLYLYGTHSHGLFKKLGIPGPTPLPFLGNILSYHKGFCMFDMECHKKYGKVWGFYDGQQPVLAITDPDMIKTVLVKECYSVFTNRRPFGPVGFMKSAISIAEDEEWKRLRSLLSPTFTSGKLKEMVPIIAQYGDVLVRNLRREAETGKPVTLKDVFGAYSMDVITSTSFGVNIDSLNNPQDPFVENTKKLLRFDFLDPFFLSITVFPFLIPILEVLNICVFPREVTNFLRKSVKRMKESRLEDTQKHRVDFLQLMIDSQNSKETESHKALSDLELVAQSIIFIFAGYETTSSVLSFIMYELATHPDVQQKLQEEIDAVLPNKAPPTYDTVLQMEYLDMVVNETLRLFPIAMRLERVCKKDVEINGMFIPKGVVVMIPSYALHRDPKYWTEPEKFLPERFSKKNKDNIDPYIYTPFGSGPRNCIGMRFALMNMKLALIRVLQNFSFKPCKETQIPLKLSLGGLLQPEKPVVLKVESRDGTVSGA

physchem = settings: octanol/water
[23] = Volume of distribution at steady state in Nu/Nu mouse at 1 mg/kg, iv administered as single dose; type: ADME, organism-based; settings: in vivo, read-out: Vdss
CYP2D6 = CYP2D6 (Homo sapiens, UniProt P10635); assay: Inhibition of human CYP2D6 at 10 uM; type: ADME
Chain of CYP2D6 (P10635 whole entry): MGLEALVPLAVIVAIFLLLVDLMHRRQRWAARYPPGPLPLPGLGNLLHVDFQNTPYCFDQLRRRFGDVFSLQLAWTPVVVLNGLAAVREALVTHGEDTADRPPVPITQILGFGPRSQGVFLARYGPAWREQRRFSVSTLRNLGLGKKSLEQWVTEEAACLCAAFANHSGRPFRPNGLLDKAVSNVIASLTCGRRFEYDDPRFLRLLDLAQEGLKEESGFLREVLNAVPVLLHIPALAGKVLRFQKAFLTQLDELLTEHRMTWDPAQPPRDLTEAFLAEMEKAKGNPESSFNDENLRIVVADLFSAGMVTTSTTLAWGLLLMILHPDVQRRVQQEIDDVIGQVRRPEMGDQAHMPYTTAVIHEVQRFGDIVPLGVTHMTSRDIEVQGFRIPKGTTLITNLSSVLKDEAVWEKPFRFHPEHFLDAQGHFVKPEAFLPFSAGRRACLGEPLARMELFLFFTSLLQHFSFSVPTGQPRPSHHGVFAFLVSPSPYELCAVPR

[24] = Oral bioavailability in Beagle dog at 3 mg/kg administered as single dose; type: ADME, organism-based, Canis lupus familiaris; settings: in vivo
Rattus norvegicus [25] = assay: Toxicity in rat assessed as electrocardiogram changes administered as single dose; type: organism-based; settings: in vivo
[26] = Time-dependent inhibition of CYP450 (unknown origin); type: ADME; settings: human
Rattus norvegicus [27] = assay: Toxicity in rat assessed as effect on heart rate administered as single dose; type: organism-based; settings: in vivo
[28] = Clearance in Beagle dog plasma at 1 mg/kg, iv administered as single dose; type: ADME, organism-based, Canis lupus familiaris
Canis familiaris [29] = assay: Toxicity in dog assessed as effect on heart rate administered as single dose; type: organism-based, Canis lupus familiaris; settings: in vivo
[30] = target: Tyrosine-protein kinase JAK3 (Homo sapiens) (UniProt P52333); assay: Inhibition of JAK3 (unknown origin) at 1 uM by cell based assay
Chain of Tyrosine-protein kinase JAK3 (Homo sapiens) (P52333 whole entry): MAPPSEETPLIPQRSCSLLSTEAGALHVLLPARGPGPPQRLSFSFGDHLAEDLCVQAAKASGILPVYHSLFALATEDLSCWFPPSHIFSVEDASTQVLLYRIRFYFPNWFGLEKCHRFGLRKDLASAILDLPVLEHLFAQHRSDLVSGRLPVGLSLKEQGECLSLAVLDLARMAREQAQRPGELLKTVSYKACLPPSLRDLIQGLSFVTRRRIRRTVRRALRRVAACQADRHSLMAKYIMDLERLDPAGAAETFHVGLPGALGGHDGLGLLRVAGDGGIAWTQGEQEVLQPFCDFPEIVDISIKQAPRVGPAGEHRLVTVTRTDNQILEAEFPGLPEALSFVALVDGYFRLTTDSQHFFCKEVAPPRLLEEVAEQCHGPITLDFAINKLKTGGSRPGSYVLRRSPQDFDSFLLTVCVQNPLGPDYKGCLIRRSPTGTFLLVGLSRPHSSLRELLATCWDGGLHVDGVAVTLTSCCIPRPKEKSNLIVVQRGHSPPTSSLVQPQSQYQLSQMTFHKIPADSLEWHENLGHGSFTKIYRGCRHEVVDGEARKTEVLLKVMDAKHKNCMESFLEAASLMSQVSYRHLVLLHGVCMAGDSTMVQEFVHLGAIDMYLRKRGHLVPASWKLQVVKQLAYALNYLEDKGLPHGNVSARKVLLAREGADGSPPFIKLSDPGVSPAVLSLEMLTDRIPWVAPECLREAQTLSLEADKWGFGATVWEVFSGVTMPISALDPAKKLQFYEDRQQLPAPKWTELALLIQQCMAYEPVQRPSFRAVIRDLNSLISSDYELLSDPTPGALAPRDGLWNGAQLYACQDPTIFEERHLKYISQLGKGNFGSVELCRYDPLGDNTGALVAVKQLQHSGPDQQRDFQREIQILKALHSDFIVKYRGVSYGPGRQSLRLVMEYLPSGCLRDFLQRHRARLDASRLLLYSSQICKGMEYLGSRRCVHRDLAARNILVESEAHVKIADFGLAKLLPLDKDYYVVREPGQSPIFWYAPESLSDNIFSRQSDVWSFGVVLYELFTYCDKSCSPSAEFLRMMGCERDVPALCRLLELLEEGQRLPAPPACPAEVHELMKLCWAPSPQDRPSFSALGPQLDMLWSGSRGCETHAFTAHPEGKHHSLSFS

[31] = target: Proto-oncogene tyrosine-protein kinase ROS (Homo sapiens) (UniProt P08922); assay: Inhibition of ROS (unknown origin) at 1 uM by cell based assay
Chain of Proto-oncogene tyrosine-protein kinase ROS (Homo sapiens) (P08922 whole entry): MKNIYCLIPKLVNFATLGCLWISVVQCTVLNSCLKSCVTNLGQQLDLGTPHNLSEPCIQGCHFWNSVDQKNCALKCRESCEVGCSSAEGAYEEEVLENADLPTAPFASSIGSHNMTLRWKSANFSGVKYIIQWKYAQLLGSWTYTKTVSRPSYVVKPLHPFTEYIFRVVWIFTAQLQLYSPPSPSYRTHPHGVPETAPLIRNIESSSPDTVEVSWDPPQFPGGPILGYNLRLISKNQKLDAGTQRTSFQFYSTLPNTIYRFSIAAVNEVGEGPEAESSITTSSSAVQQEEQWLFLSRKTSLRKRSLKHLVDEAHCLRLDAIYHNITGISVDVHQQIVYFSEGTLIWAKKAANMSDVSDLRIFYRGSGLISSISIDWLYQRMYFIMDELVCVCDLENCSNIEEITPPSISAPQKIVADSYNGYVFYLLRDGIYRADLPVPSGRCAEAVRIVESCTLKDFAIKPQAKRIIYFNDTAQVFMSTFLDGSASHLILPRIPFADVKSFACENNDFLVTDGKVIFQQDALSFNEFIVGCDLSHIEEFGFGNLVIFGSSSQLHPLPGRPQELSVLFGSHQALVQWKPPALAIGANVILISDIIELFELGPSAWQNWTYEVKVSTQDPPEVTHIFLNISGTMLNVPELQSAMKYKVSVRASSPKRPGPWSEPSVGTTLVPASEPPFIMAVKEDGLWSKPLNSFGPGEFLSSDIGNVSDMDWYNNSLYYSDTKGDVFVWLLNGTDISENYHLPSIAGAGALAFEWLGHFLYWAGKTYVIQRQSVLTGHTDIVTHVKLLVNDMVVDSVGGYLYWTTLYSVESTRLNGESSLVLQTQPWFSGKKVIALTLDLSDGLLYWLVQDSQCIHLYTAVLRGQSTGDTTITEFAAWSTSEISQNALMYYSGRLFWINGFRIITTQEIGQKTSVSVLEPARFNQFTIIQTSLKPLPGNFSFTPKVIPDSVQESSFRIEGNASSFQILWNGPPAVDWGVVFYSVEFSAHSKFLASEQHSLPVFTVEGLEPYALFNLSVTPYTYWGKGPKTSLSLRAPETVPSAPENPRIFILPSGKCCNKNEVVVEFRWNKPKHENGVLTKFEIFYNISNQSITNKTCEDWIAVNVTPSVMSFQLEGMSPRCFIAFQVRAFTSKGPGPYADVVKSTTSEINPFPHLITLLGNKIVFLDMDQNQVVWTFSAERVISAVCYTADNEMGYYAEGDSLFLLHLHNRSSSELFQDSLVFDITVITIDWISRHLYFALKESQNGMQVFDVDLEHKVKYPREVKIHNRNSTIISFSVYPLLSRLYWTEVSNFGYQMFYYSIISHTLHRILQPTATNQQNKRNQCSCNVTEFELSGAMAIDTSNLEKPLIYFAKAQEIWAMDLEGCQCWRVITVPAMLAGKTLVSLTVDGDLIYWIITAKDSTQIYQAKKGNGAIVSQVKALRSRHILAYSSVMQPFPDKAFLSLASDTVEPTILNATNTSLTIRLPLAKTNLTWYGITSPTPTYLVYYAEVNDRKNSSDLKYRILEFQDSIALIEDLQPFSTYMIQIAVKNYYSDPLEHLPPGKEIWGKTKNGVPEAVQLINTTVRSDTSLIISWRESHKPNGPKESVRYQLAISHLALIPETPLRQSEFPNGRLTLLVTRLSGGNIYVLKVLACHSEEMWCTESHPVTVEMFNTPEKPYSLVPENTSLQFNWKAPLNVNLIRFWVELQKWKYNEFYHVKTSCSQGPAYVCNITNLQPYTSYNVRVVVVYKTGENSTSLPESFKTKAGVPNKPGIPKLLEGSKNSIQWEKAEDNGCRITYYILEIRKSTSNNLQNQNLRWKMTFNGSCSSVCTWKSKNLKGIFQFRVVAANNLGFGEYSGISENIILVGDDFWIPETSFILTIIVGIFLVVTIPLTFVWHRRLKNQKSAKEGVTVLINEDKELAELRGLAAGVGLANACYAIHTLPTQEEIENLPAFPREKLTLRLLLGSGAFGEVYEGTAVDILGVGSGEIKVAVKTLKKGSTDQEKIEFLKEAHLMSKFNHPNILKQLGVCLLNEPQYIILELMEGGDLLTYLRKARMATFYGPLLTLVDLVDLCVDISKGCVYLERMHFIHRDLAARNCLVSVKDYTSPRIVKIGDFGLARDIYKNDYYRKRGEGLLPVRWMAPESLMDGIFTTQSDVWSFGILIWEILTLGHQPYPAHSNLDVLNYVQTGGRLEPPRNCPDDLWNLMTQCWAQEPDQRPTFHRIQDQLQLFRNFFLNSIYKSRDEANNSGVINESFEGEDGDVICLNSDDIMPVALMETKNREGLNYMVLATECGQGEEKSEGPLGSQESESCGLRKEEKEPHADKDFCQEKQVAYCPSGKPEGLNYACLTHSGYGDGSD

Canis familiaris [32] = assay: Toxicity in dog assessed as electrocardiogram changes administered as repeated dosing; type: organism-based, Canis lupus familiaris; settings: in vivo
[33] = Clearance in Wistar Han rat plasma at 1 mg/kg, iv administered as single dose; type: ADME, organism-based

## C=CC(=O)N[C@@H]1CN(c2nc(Nc3cn(C)nc3OC)c3ncn(C)c3n2)C[C@H]1F [MAVELERTINIB]
[1]
  clearance: 53 mL/min/kg
In vitro
  microsomal CLint at […], 1 µM: 8 µL/min/mg
[2]
  Drug metabolism: Metabolite_Detected
[3]
  inhibition: > 50%
Canis familiaris [4]
  Activity: Non-Toxic
Rattus norvegicus [5]
  Activity: Non-Toxic
[6]
  CLint scaled: 74 mL/min/kg
[7]
  CLint scaled: < 6 mL/min/kg
Rattus norvegicus [8]
  Activity: Non-Toxic
[9]
  half-life at 1 µM: 5.8 h
Rattus norvegicus [10]
  Activity: Non-Toxic
[11]
  IC50: > 100 µM
Canis familiaris [12]
  Activity: Non-Toxic
Rattus norvegicus [13]
  Activity: Non-Toxic
[14]
  CLint scaled: 3 mL/min/kg
[15]
  inhibition: > 50%
[16]
  Vd: 0.94 L/kg
[17]
  half-life at 1 µM: 3.95 h
[18]
  CLint scaled: 196 mL/min/kg
[19]
  bioavailability: 60%
Canis familiaris [20]
  Activity: Non-Toxic
Hepatocyte
  CLH: 3 µL/min/mg
[21]
  inhibition: Active
Rattus norvegicus [22]
  Activity: Non-Toxic
CYP3A4
  inhibition at 10 µM: < 30%
physchem
  logD: 2
[23]
  Vd: 1.48 L/kg
CYP2D6
  inhibition at 10 µM: < 30%
[24]
  bioavailability: 66%
Rattus norvegicus [25]
  Activity: Non-Toxic
[26]
  TDI: Not Active
Rattus norvegicus [27]
  Activity: Non-Toxic
[28]
  clearance: 12 mL/min/kg
Canis familiaris [29]
  Activity: Non-Toxic
[30]
  inhibition: Active
[31]
  inhibition: Active
Canis familiaris [32]
  Activity: Non-Toxic
[33]
  clearance: 49 mL/min/kg
